Results taken from ChEMBL document CHEMBL1201862, “PubChem BioAssay data set” (2004).
Active and inactive are the calls of the source. Rule as the data show it, for most assays here: actives have a measured EC50 and inactives only a lower limit.

Tests used:
[1] = target: T1, Heat shock factor protein 1 (Mus musculus, UniProt P38532); test: decrease of HSF1-responsive luciferase luminescence – cell-based, NIH3T3, dose retest, confirmation (AID 2382); type: functional;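 also: NIH3T3 fibroblasts with HSF1-driven luciferase reporter stressed by proteasome inhibitor MG132; luminescence from HSF1-driven luciferase expression after 8 hours of MG132 stress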
T1 sequence (P38532 whole entry): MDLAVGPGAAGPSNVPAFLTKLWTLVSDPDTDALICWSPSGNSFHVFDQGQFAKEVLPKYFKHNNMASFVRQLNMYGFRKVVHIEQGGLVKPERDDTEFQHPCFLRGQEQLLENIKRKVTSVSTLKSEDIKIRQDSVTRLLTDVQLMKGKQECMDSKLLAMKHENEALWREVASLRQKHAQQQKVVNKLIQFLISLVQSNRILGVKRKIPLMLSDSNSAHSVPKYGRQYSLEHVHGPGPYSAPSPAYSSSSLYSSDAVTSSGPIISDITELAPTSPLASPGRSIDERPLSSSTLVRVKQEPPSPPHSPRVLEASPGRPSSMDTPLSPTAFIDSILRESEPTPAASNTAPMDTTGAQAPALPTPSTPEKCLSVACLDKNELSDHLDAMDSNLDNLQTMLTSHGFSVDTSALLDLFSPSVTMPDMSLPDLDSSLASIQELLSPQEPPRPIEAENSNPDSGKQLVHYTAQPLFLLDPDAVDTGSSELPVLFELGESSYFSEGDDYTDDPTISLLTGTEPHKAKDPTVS

[2] = target: T1, Heat shock factor protein 1; test: enhancement of HSF1-driven luciferase signal – cell-based, NIH3T3, luminescence, dose retest, confirmation (AID 435004); type: functional;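 also: stress induced by proteasome inhibitor MG132 added 30 min after compound; luciferase reporter driven by HSF1 response element in NIH3T3 cells; actives raise luminescence as potentiators of the MG132 stress response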
[3] = target: T2, Replicative DNA helicase DnaB (Mycobacterium tuberculosis, UniProt P9WMR3); test: DnaB intein splicing inhibitors, dose response, biochemical, cell-free fluorescence (AID 449749); type: functional
T2 sequence (P9WMR3 whole entry): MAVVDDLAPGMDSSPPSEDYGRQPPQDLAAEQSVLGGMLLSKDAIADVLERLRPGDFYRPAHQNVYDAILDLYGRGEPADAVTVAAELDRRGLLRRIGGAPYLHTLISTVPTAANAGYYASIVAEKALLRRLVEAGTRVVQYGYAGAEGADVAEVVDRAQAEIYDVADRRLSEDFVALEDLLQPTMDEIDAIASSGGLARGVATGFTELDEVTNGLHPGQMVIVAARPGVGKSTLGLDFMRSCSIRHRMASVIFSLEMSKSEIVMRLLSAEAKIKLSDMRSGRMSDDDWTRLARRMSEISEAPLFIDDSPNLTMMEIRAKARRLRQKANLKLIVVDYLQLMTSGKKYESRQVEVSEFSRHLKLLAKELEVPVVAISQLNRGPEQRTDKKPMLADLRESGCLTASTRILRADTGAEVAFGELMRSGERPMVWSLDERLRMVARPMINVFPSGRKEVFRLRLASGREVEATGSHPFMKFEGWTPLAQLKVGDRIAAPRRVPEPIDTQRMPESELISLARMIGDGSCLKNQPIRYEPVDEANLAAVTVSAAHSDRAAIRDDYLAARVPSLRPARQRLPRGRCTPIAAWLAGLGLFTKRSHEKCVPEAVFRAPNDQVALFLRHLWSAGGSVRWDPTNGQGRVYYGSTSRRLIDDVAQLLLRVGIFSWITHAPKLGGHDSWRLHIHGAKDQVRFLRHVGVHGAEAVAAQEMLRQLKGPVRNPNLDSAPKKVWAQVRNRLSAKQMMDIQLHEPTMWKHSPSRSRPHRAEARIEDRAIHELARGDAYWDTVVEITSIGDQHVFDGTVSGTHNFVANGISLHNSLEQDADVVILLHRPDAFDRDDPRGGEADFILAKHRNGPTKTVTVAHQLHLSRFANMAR

[4] = target: T3, Protein RecA (Mycobacterium tuberculosis, UniProt P9WHJ3); test: Fluorescence Cell-Free Homogeneous Dose Retest to Identify Inhibitors of RecA-Intein Splicing Activity. [Related pubchem assays (depositor defined):AID2097, AID2223, AID489010, AID492950]; type: functional
T3 sequence (P9WHJ3 whole entry): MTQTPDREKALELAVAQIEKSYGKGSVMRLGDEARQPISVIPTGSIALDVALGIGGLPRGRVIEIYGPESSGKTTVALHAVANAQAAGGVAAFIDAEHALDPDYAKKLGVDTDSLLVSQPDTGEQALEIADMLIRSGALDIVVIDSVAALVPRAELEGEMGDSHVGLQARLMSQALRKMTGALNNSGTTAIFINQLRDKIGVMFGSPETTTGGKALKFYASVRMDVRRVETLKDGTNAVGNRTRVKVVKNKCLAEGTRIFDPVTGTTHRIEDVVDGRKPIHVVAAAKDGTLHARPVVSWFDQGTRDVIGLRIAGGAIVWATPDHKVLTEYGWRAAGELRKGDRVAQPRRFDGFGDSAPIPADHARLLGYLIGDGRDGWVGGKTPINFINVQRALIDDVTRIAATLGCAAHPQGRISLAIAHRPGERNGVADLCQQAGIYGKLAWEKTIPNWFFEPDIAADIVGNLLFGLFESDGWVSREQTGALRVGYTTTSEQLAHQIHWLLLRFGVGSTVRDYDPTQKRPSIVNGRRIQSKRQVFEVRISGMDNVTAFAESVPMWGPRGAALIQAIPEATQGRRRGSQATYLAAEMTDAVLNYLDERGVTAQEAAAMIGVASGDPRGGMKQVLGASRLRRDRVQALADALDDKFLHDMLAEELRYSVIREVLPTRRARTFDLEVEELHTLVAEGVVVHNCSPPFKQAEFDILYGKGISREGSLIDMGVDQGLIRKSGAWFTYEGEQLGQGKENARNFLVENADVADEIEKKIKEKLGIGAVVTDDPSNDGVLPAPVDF

[5] = luciferase reporter signal suppression in cells – H4 neuroglioma cells, luminescence, dose response (AID 1990); type: functional, cell-based
[6] = Luminescence Cell-Based Dose Response HTS to Identify Inhibitors of 5'UTR Stem-Loop Driven Prion Protein mRNA Translation in H4 Neuroglioblastoma Cells. [Related pubchem assays: 1827 (Project Summary), 1813 (Primary HTS)]; type: functional
[7] = alpha-synuclein stem-loop luciferase translation blockers – H4 neuroglioma cells, luminescence, confirmation (AID 1988); type: functional, cell-based
[8] = Trypanosoma cruzi growth suppression in host cells – NIH3T3 host cells, beta-gal luminescence, confirmation (AID 2044); type: functional, cell-based;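 also: intracellular parasites grown in NIH/3T3 mouse fibroblasts as host cells; luminescent beta-galactosidase reporter signal from transgenic T. cruzi replicating inside host cells; inhibitors lower the luminescence signal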
[9] = NIH3T3 cell viability loss – ATP luminescence, mouse fibroblasts, counter-screen, dose response (AID 2010); type: functional, cell-based;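 also: cells exposed to compound for about 90 hours before reading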

O=C(Nc1ccc2[nH]ncc2c1)c1ccccc1Cl
EC50 [1]: > 195 µM (not active)

Cc1ccc2c(c1)N(Cc1ccc([N+](=O)[O-])cc1)C=NS2(=O)=O
EC50 [1]: > 195 µM (not active)

CN1CCN(C(=O)c2cc([N+](=O)[O-])cc([N+](=O)[O-])c2)CC1
EC50 [1]: > 195 µM (not active)

CCc1ccc(NC(=O)COC(=O)/C=C/c2c(C)nn(C3CCS(=O)(=O)C3)c2Cl)cc1 (stereo not drawn)
EC50 [2]: > 260 µM (inactive)

CCN1C(=O)[C@H]2[C@@H](c3ccc(C)cc3)N3C(=O)N(c4ccc(C)cc4)C(=O)[C@@]3(C)[C@H]2C1=O
EC50 [1]: > 195 µM (not active)

COC(=O)c1c(N2C(=O)[C@H]3[C@@H](C2=O)[C@]2(C(=O)Nc4c(C)cccc42)N2CCC[C@@H]32)sc(C)c1C
EC50 [1]: > 195 µM (not active)

CN(C)c1ccc(C(=O)n2nnc3ccccc32)cc1
AC50 [3]: 7.46 µM (active) | EC50 [4]: 9.71 µM (active)

COc1cc(C(=O)N(C)C2CCCN(Cc3ccccc3F)C2)cc(OC)c1OC (stereo not drawn)
EC50 [1]: > 195 µM (not active)

COc1ccc2[nH]c(CN3CCC(CO)(CCOc4ccccc4)CC3)c(C)c2c1
AC50 [3]: > 380 µM (inactive) | EC50 [4]: > 380 µM (inactive)

COc1ccc(N(CC(=O)Nc2cccc(C)c2)S(=O)(=O)c2c(C)noc2C)cc1
EC50 [1]: > 195 µM (not active)

CCOc1ccc(NC(=S)N(CCc2ccncc2)C(C)C)cc1
EC50 [1]: > 195 µM (not active)

CCC12C(=O)C(CC)(C(c3ccccc3)=C1c1ccccc1)[C@@H]1C(=O)N(c3ccc(C)cc3)C(=O)C12 (stereo partly drawn)
EC50 [5]: 14.8 µM (active) | EC50 [6]: > 120 µM (not active) | EC50 [7]: > 120 µM (not active) | EC50 [8]: 2.87 µM (active) | EC50 [9]: > 30 µM (not active)

COc1c([N+](=O)[O-])c(=O)oc2ccccc12
EC50 [1]: > 195 µM (not active)

CCN(C1CCS(=O)(=O)C1)S(=O)(=O)c1cccs1 (stereo not drawn)
EC50 [1]: > 195 µM (not active)

Cc1n[nH]c(O)c1C(c1ccc(F)cc1)c1c(C)n[nH]c1O
AC50 [3]: 0.628 µM (active) | EC50 [4]: 0.291 µM (active)

Cc1ccccc1/[N+]([O-])=C/c1cccs1
EC50 [2]: > 260 µM (inactive)

COc1ccc(Cc2noc(-c3ccc(OC)c(OC)c3)n2)cc1OC
EC50 [5]: > 120 µM (not active) | EC50 [6]: > 120 µM (not active) | EC50 [7]: > 120 µM (not active)

Cc1ccc2oc(C(=O)N3CCC(C(N)=O)(N4CCCCC4)CC3)c(C)c2c1
EC50 [1]: > 195 µM (not active)

Cc1sc2ncnc(N3CCOCC3)c2c1C
EC50 [5]: 20.4 µM (active) | EC50 [6]: 40.6 µM (active) | EC50 [7]: 17.5 µM (active)

Cc1n[nH]c(O)c1C(c1ccc2c(c1)OCO2)c1c(C)n[nH]c1O
AC50 [3]: 0.324 µM (active) | EC50 [4]: 0.189 µM (active)

O=C(NCc1nc2ccccc2[nH]1)C1=C[C@@H](c2ccc3c(c2)OCO3)C[C@@H](OCc2ccc(CO)cc2)O1
EC50 [1]: > 195 µM (not active)

O=C(Nc1ccc2c(c1)ncn2C1CCCCC1)c1ccco1
EC50 [1]: > 195 µM (not active)

CCOc1ccccc1NC(=O)Cn1nnc(C(=O)NCc2ccc3c(c2)OCO3)c1N
EC50 [5]: > 120 µM (not active) | EC50 [6]: 36.7 µM (active) | EC50 [7]: > 120 µM (not active)

CCCN(CCC)C(=O)CSc1nc2nnc(C)c-2c(N)n1-c1ccc(OC)cc1
EC50 [5]: 19.3 µM (active) | EC50 [6]: 19.8 µM (active) | EC50 [7]: 16.1 µM (active)

O=C(Nc1cccc(-c2ccc(F)cc2)c1)C1CCCN(C(=O)c2cscn2)C1 (stereo not drawn)
EC50 [1]: > 195 µM (not active)

COc1ccc(N2CCN(C(=O)COC(=O)CCOc3ccccc3C)CC2)cc1
EC50 [1]: > 195 µM (not active)

Cc1cc(C)n(-c2nc3ccccc3s2)n1
EC50 [1]: > 195 µM (not active)

COc1ccc(NC(=O)Nc2c(O)ccc3ccccc23)cc1
AC50 [3]: > 380 µM (inactive) | EC50 [4]: 1.49 µM (active)

COc1cc(OC)cc(C(=O)N/N=C(\C)CC(=O)Nc2ccccn2)c1
AC50 [3]: 13.1 µM (active) | EC50 [4]: 7.81 µM (active)

S=C1NCCN1 [ETHYLENE THIOUREA]
EC50 [1]: > 195 µM (not active)
